Patent US8207218B2, “DMAE as sole agent for the treatment of mild cognitive impairment” (Pierre Fabre Medicament, priority 2006, dated 2012)

What was measured:
[1] = tested on: healthy individuals with memory loss induced by injection of scopolamine; assay: Attention (Digit Symbol Substitution Test), alertness and mood (EVA by Bond and Lader), reaction times, after scopolamine; type: in vivo; details: 24 healthy individuals, repeated oral doses
Method: (§1) Under the present invention, the activity of DMAE and its salts and esters, and the hydrates and solvates, was assessed in a population in whom this memory disorder was induced by injection of scopolamine, to reproduce the profile of the target population.
(§2) The medications given were in forms suitable to be taken via oral route, corresponding to dosage units allowing daily doses in the order of 100 mg to 3 g, advantageously 300 mg to 3 g of active ingredient in adults, particularly in the order of 1500 mg per day. The tested medications led to plasma levels corresponding to a Cmax peak of around 1.5 μg/ml of DMAE and/or around 24 ng/ml of pGlu (pyroglutamic acid).
(§3) The Applicant conducted the following tests: • Memory test: Buschke Selective Reminding Test, • Attention test: Digit Symbol Substitution Test (90″) • Assessment of alertness and mood: EVA by Bond and Lader, • Sensory-motor performance tests: reaction times (total, decisional and motor)

[2] = tested on: healthy individuals with memory loss induced by injection of scopolamine; assay: Buschke Selective Reminding Test, memory loss induced by injection of scopolamine (cross-over study); type: in vivo; details: 24 healthy individuals, repeated oral doses
Method: as §1, §2, §3
The main results observed are given in the graphs of the appended FIGS. 1 to 4 in which: • LTS designates the number of words acquired in long-term storage, • LTR designates the number of words retrieved from long-term memory in each test i.e. the words belonging to LTS and which are recalled for the test in progress, and • CLTR designates the number of words which are consistently acquired i.e. which are recalled during subsequent tests.

CN(C)CCO.O=C1CC[C@@H](C(=O)O)N1 [DMAE pyroglutamate]
impact on the other cognitive components tested such as alertness, attention [1]: without any impact | effect on memory performance levels [2]: specific effect on memory performance levels

CN(C)CCO [DMAE, dimethylaminoethanol]
impact on the other cognitive components tested such as alertness, attention [1]: without any impact | effect on memory performance levels [2]: specific effect on memory performance levels
